Measured values taken from patent US10442767B2 (priority 2012, dated 2019).
Read-outs that look alike come from different tables or passages of the source.

How the values were obtained:
[1] = biological target: T1, Shaker K^+ channel (Drosophila melanogaster, UniProt P08510); experiment: Inhibition of K+ currents, cut-open oocyte voltage clamp; format: cell-based, Xenopus oocytes; conditions: for fold less potent than 4-AP: cut-open oocyte voltage clamp (Example 2); for IC50: relative K+ current at +20 mV, Xenopus oocytes, Hill fit, read-out: half-maximal inhibitory concentration (IC50)
T1 construct: injecting approximately 50 ng of WT Shaker cRNA (kit Ambion) into the oocytes; expressed in transfected cells; host or cells: Xenopus laevis oocytes (cRNA injection)
Protocol: Using the cut-open oocyte voltage clamp studies to screen compounds to determine their potency towards Kv1 cannels was previously described in Starace and Bezanilla et al. (2004).
For this experiment, Shaker K^+ channel from D. […] was chosen as the archetypical voltage gated K^+ channel that gives name to the family.
Electrophysiology studies are conducted according to the protocol by Stefani and Bezanilla (1998). Briefly, K^+ channel Shaker cRNA is injected into Xenopus oocytes 24 h after their surgical extraction from adult frogs. 1-5 days after injection channel currents are recorded using the cut-open voltage-clamp.
K^+ channel expression in Xenopus oocytes membranes was achieved by injecting approximately 50 ng of WT Shaker cRNA (kit Ambion) into the oocytes 24 h after surgical extraction from adult frogs and collagenase treatment. Injected oocytes were maintained in a standard oocytes solution (100 mM NaCl, 5 mM KCl, 2 mM CaCl2, and 10 mM Hepes at pH 7.5) at 16.5° C. and recordings were performed 1-3 days after injection.
K^+ currents were recorded from oocytes expressing Shaker K^+ channels using the cut-open voltage clamp technique as described by Stefani and Bezanilla. The internal solution was 120 mM KOH, 20 mM HEPES-methyl sulfonate (MES) pH 7.4, 2 mM EGTA. The external solution was 12 mM KOH, 105 mM N-methyl-D-glucamine-MES pH 7.4, 20 mM HEPES, 2 mM CaOH. […] After application, cells were voltage-clamped at least 5 min at 0 mV, then voltage-clamped at −80 mV for 1-2 min. K^+ currents were generated by applying series of 50 ms pulses from −70 mV to +40 mV in increments of 10 mV. […] Analysis of the traces was done using an in-house software. The half-maximal inhibitory concentration (IC50) for each drug was calculated by plotting the relative K^+ current vs. concentration and fitted to the Hill equation using the software Origin.
(§1) EC50=10^<log EC50>; where <log EC50>=average of log EC50 values from all experiments with the same drug. 95% C.I.=[Upper Limit . . . Lower Limit]; where U.L.=10^(log EC50+s.d.) and L.L.=10^(log EC50−s.d.). The half-life (t1/2) in the stability and pharmacokinetic experiments was calculated by fitting the data to the equation Ct=C0*exp(−k*t) where C0=initial concentration, Ct=concentration at time t, and k=ln 2/t1/2. Student t-test was used to compare results and P<0.05 was considered significant.

[2] = test system: hypomyelinated optic nerves from Shiverer mice (shi^−/−); experiment: Compound action potential (CAP) of dissected hypomyelinated optic nerve; format: cell-based, mouse; conditions: for EC50: Mus musculus, hypomyelinated Shiverer optic nerve, 22 °C, Hill fit, read-out: half-maximal effective concentration (EC50) in enhancing the CAP
Protocol: (§2) In order to determine if the drugs could also be effective in enhancing compound action potentials (CAP), the effects of these compounds on the CAP of hypomyelinated optic nerves from Shiverer mice (shi^−/−) and control mice (shi^+/−, shi^+/+) were tested. Shiverer mice lack compact myelin in the CNS due to a null mutation of the myelin basic protein gene (MBP).
optic nerves were dissected from 12-16 week old Shiverer (shi^−/−) and control mice (shi^+/− and shi^+/+). Mice were euthanized by CO2 overdose and the optic nerves were quickly dissected between the eyeball and the optic chiasm. The nerves were incubated for 30 min at 37° C. in oxygenated (95% O2, 5% CO2) aCSF solution (126 mM NaCl, 3 mM KCl, 2 mM MgSO4, 26 mM NaHCO3, 2 mMCaCl2, 10 mM dextrose, pH 7.5) before the experiment.
compound action potentials (CAP) from hypomyelinated nerves (Shiverer mice, shi^−/−) and myelinated nerves (litermate controls, shi^+/− and shi^+/+) were recorded using suction electrodes as described by Stys et al. Briefly, the dissected optic nerve was placed inside a chamber containing oxygenated (5% CO2, 95% O2) aCSF (300 μL) between two suction electrodes (stimulus and recording electrodes) forming a tight seal on each end. Two additional electrodes were placed in the bath for reference. A supramaximal pulse (250 mV, 20 μs) was applied at the stimulating end of the nerve. The resulting CAP was amplified from the recording electrode using a high impedance low-noise amplifier (EG&G Princeton Applied Research Corporation) and filtered and sampled at 10-100 kHz. […] After each measurement the chamber was washed for 5 min (flow 1 mL/min) with oxygenated aCSF. The study was conducted at 22.2±1.3° C. to allow for slower conduction and the temperature was monitored throughout the experiment. CAP recordings were acquired with a SBC6711 board (Innovative Integration) controlled by in-house written software. Analysis of the traces was done using an in-house software. The half-maximal effective concentration (EC50) for each drug was calculated by plotting the final over initial amplitude vs. concentration and fitted to the Hill equation using Origin.
as §1, with “The Hill equation used to fit the data from the voltage-clamp and the optic nerve experiments was as follows: y=y0+(yf−y0)*x^n/(k^n+x^n); where n refers to the Hill coefficient (typically 1±0.1) and k refers to EC50 or IC50. y0 and yf refers to the origin and final ordinate values and were fixed at 1±0.1 or 0±0.1 depending on the experiment. EC50=10^<log” for “EC50=10^<log”

[3] = test system: C57Bl/6J mice; experiment: In vivo effects (tremor, seizures) after intraperitoneal injection; parameters: species or system mouse; conditions: for effects in mice: doses up to 20 times higher; for Effect: N = 5
Protocol: A consequence of excessive K^+ channel blockage is the advent of seizures. 4-AP is known to cause seizures in mice at high doses.
At high doses, 4-AP causes tremors, muscle spasms and seizures.
10-week-old female C57Bl/6J mice were given an intraperitoneal injection of the drug under investigation and monitored continuously for 4 h. After 4 h no signs of drug effects could be observed. At least 72 h passed between injections to the same mice.

[4] = test system: normally myelinated optic nerves from control mice (shi^+/−, shi^+/+); experiment: Compound action potential (CAP) of dissected normally myelinated optic nerve; format: cell-based, mouse
Protocol: as §2
optic nerves were dissected from 12-16 week old Shiverer (shi^−/−) and control mice (shi^+/− and shi^+/+). Mice were euthanized by CO2 overdose and the optic nerves were quickly dissected between the eyeball and the optic chiasm. […]
compound action potentials (CAP) from hypomyelinated nerves (Shiverer mice, shi^−/−) and myelinated nerves (litermate controls, shi^+/− and shi^+/+) were recorded using suction electrodes as described by Stys et al. Briefly, the dissected optic nerve was placed inside a chamber containing oxygenated (5% CO2, 95% O2) aCSF (300 μL) between two suction electrodes (stimulus and recording electrodes) forming a tight seal on each end. […] The study was conducted at 22.2±1.3° C. to allow for slower conduction and the temperature was monitored throughout the experiment. […] The half-maximal effective concentration (EC50) for each drug was calculated by plotting the final over initial amplitude vs. concentration and fitted to the Hill equation using Origin.

[5] = Parallel Artificial Membrane Permeability Assay (PAMPA); format: in vitro ADME; conditions: porcine polar brain lipids, 0.5 mM, 16 h, n=3
Protocol: In this experiment, the inventors included highly permeable verapamil and lowly permeable theophylline as controls.
Permeability studies were performed as previously described by Sugano, et al., 2011. A 96-well microplate (acceptor compartment) was filled with PBS containing 5% DMSO. A hydrophobic filter plate (donor compartment) was placed atop the buffer-filled plate and the filter surface was impregnated with 5 μL solution of porcine polar brain lipids (Avanti Lipids) in dodecane (1% w/v). 150 μL of the test compounds dissolved in PBS containing 5% DMSO (compound concentration 0.5 mM) was added to the donor compartment and covered. The only barrier between the two compartments was the artificial BBB membrane containing the porcine polar brain lipids. The whole system was incubated for several hours.

[6] = Pharmacokinetic study after single intravenous dose; format: in vivo, mice (CD-1); conditions: female, CD-1, mouse, mice, i.v. 0.75 mg/kg
Protocol: 39 mice (CD-1, 6-weeks old, female) were used in the study. […] The drugs were dissolved in PBS and administered via tail-vein injection to achieve a dose of 0.75 mg/kg of body weight. At specific times post injection (10 min, 30 min, 1 h, 2 h, 4 h and 24 h) blood and brain samples were collected. Blood samples were transferred into tubes containing 5% EDTA, stored on ice, and centrifuged (4° C., 1000 rpm, 15 min). Plasma (upper phase) was transferred to a new tube and stored at −80° C. for further analysis. Brain tissue samples were collected after intracardial perfusion of the mouse. Brain tissue samples were stored at −80° C. for further analysis. Drug quantification in plasma: Briefly, to a 1.5 mL Eppendorf tube containing 50 μl of plasma, 200 μl of ice-cold acetonitrile containing 1,000 ng/ml Progesterone (used as internal standard) was added in order to precipitate the proteins. The sample was vortexed, mixed and centrifuged at 4000×g for 10 min at 4° C. to remove precipitates. 140 μl supernatant was collected and transferred to a 500 μl 96-well polypropylene plate and covered using silicone plate mat. 40 μl of sample was injected in into LC-MS. Using the same sample preparation procedure 11 standard solutions ranging from 50 ng/mL to 100 μg/mL were prepared, analyzed by LC-MS and used as a calibration curve to correlate peak area of the samples to concentration. Drug quantification in brain: the mouse brain was weighted and 1 mL of water per 400 mg of tissue was added. The sample was homogenized using an electric tissue homogenizer. To a 1.5 mL Eppendorf tube containing 50 μl of homogenized sample, 200 μl of ice-cold acetonitrile containing 1000 ng/ml Demeclocycline (used as internal standard) was added in order to precipitate the proteins. The sample was vortexed, mixed and centrifuged at 4000×g for 10 min at 4° C. to remove precipitates. 140 μl supernatant was collected and transferred to a 500 μl 96-well polypropylene plate and covered using silicone plate mat. 40 μl of each sample was injected into LC-MS. Using the same sample preparation procedure 11 standard solutions ranging from 50 ng/mL to 100 μg/mL were prepared, analyzed by LC-MS and used as a calibration curve to correlate peak area of the samples to concentration.
as §1, with “The Hill equation used to fit the data from the voltage-clamp and the optic nerve experiments was as follows: y=y0+(yf−y0)*x^n/(k^n+x^n); where n refers to the Hill coefficient (typically 1±0.1) and k refers to EC50 or IC50. y0 and yf refers to the origin and final ordinate values and were fixed at 1±0.1 or 0±0.1 depending on the experiment. EC50=10^<log” for “EC50=10^<log”

[7] = Brain distribution of [^3H] 4-AP in LPC-injected mice by autoradiography; format: in vivo; conditions: [^3H] 4-AP 0.4 μCi/g i.v., 20-60 min
Protocol: The inventors conducted an experiment to evaluate if 4-AP selectively localizes in demyelinated (injured) areas. […] The lesions were caused by prior injection of lysophosphatidylcholine (LPC), also called lysolecithin, into their brains, which causes focal demyelination at the site of injection. Two days after LPC injection, at the peak of demyelination, the animals were injected with [^3H] […] Twenty to sixty minutes after injection of [^3H] 4-AP the mice were euthanized and their brains were dissected and frozen. The frozen brains were then cut into 20 μm sections using a cryostat and the sections mounted in slides. The slides were then exposed to radiation sensitive X-ray film at −80° C. in the dark for forty days to capture the distribution of radioactivity coming from [^3H] 4-AP throughout the brain.
After autoradiographic exposure, the slides were stained for myelin basic protein (MBP) using immunohistochemistry and imaged using fluorescent microscopy to determine the areas of demyelination.

[8] = test system: K^+ channels; conditions: cited from earlier work

T1 sequence (P08510 whole entry): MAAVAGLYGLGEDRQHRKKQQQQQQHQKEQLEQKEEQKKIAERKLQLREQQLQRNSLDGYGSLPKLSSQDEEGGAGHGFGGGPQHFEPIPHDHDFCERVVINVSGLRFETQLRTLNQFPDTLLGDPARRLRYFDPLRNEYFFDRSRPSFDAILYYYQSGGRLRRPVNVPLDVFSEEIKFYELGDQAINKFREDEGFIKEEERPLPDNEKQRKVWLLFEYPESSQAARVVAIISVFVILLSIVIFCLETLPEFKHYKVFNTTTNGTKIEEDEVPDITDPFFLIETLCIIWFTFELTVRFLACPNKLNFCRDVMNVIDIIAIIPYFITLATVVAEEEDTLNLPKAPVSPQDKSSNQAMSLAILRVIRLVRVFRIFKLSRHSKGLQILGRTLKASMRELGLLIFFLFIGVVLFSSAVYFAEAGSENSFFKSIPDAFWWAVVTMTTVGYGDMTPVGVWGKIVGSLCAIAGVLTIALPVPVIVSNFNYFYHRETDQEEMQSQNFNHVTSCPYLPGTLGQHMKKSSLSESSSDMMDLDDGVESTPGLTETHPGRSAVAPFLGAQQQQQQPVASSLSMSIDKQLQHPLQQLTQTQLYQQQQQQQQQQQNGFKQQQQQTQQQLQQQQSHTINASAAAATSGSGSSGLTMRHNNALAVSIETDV

Nc1ccnc(F)c1 [2-F-4-AP, 2-fluoro-4-aminopyridine]
fold less potent than 4-AP [1]: at least a hundred fold-less potent
IC50 [1]: > 10000 µM
effect on CAP ([2]; hypomyelinated optic nerve): no effect
effects in mice [3]: did not cause any effects
Effect ([3]; i.p., 1920 μmol/kg): No effect

Nc1ccncc1CCF [3-EtF-4-AP, 3-fluoroethyl-4-aminopyridine]
fold less potent than 4-AP [1]: at least a hundred fold-less potent
IC50 [1]: > 10000 µM

Nc1ccncc1CF [3-MeF-4-AP, 3-fluoromethyl-4-aminopyridine]
fold less potent than 4-AP [1]: around 10 fold
IC50 [1]: 7450 µM
times less potent than 4-AP ([1]; voltage-clamp and optic nerve experiments together): 6-20 times
EC50 [2]: 286 µM
Effect ([3]; i.p., 30 μmol/kg): No effect
Effect ([3]; i.p., 60 μmol/kg): Very mild tremor. Normal after 30 min
duration of effect (tremors, seizures or jerks) ([3]; i.p., 90 μmol/kg): ~45 min
Effect ([3]; i.p., 90 μmol/kg): Tremor and occasional jerks that last ca.
duration of tremor and seizures ([3]; i.p., 120 μmol/kg): min post-injection and last ca. 45 min.
mice died of seizure ([3]; i.p., 120 μmol/kg): 1 of 5 mice died of seizure
start of tremor and seizures post-injection ([3]; i.p., 120 μmol/kg): 5 min
Effect ([3]; i.p., 120 μmol/kg): Severe tremor and seizures
in vivo potency compared with 4-AP ([3]; i.p., mice): slightly less potent than 4-AP

Nc1ccncc1CO [3-MeOH-4-AP, 3-methanol-4-aminopyridine, reference compound]
IC50 [1]: 4380 µM
EC50 [2]: 386 µM
effects in mice [3]: did not cause any effects
Effect ([3]; i.p., 960 μmol/kg): No effect

Nc1ccncc1 [4-AP, 4-aminopyridine, reference compound]
EC50 [2]: 59.2 µM
increase in CAP amplitude ([2]; hypomyelinated nerves): 2-4 fold
increase in CAP amplitude [4]: around 5%
Effect ([3]; i.p., 30 μmol/kg): Mild tremor, mouse quiet
Effect ([3]; i.p., 60 μmol/kg): Severe tremor, mild jerks, salivation
duration of tremors and seizures ([3]; i.p., 90 μmol/kg): ~2 h
start of tremors and seizures post-injection ([3]; i.p., 90 μmol/kg (highest dose)): 10 min
Effect ([3]; i.p., 90 μmol/kg): Severe tremors and seizures that start
Pe: permeability coefficient across artificial membrane [5]: 0.236 ± 0.003 ×10⁻⁶ cm/s
Kp ([6]; brain and plasma, read-out: Cbrain/Cplasma (maximum in the brain over maximum in plasma)): 0.1 ± 0.05
half-life ([6]; brain, read-out: half-life in brain (converted)): 1.9 h
half-life ([6]; plasma, read-out: half-life in plasma (converted)): 0.33 h
brain localization by autoradiography [7]: localizes to demyelinated areas but not myelinated areas
in vitro affinity ([8]; in vitro): ~250 µM
concentration active in vivo ([8]; in vivo): ~0.5 µM
